From patent US8084484B2, “Vanilloid receptor ligands, pharmaceutical compositions containing them, process for making them, and use thereof for treating pain and other conditions” (Gruenenthal GmbH, priority 2007, dated 2011)

Tests used:
[1] = target: T1, vanilloid receptor (VR1), human VR1 gene (Homo sapiens, UniProt Q8NER1); test: FLIPR Ca2+ influx assay on CHO K1 cells transfected with the VR1 gene, capsaicin stimulus (Pharmacological method II); type: cell-based; details: for inhibition at 0.1 µM: CHO-K1, compound 0.1 μM, read-out: Capsaicin: inhibition (in percent) @ 0.1 μM; for inhibition at 0.1 µM / inhibition at 5 µM: species column unclear (taken as human); for Ki (human) Capsaicin / Ki: Ki by Cheng-Prusoff, ne = no effect, no response observed, human; for inhibition at 5 µM: CHO-K1, compound 5 μM, read-out: Capsaicin: inhibition (in percent) @ 5 μM
T1 construct: expressed in transfected cells; host or cells: CHO K1 cells (ECACC), stably transfected
T1 sequence (Q8NER1 whole entry): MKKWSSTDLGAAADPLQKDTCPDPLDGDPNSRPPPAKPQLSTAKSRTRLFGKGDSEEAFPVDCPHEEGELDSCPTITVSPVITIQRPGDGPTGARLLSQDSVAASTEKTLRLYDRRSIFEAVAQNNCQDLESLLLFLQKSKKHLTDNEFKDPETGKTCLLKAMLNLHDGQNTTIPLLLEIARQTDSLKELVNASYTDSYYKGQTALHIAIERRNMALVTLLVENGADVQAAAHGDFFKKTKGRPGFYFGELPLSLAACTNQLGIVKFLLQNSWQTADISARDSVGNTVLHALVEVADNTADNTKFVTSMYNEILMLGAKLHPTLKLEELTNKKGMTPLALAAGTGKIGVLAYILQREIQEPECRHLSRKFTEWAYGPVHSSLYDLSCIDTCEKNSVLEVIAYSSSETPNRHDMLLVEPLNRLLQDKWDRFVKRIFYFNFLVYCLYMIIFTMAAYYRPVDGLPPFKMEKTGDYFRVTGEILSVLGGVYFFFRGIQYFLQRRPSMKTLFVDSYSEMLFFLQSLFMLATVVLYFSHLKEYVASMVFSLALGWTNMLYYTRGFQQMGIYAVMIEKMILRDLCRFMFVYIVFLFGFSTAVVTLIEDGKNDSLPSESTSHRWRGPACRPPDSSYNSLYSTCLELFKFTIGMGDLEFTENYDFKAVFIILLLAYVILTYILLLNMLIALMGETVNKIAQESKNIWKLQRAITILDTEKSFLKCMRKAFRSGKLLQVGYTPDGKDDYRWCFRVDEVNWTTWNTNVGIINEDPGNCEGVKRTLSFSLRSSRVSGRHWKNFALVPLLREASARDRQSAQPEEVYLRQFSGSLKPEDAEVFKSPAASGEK
Description: In addition, compounds according to the invention of the general formulae I, Ia, Ib, Ic, and Id, may be preferred which in the FLIPR assay with CHO K1 cells, which have been transfected with the human VR1 gene, in a concentration of less than 2000 nM, preferably of less than 1000 nM, particularly preferably of less than 300 nM, very particularly preferably of less than 100 nM, still more preferably of less than 75 nM, further preferably of less than 50 nM and most preferably of less than 10 nM, bring about a 50 percent displacement of capsaicin, which is present in a concentration of 100 nM. In this FLIPR assay, the influx of Ca^2+ is quantified with the assistance of a Ca^2+-sensitive dye (type Fluo-4, Molecular Probes Europe BV, Leiden, Netherlands) in a Fluorescent Imaging Plate Reader (FLIPR, Molecular Devices, Sunnyvale, USA) as described below.
II. Functional Investigations on Vanilloid Receptor (VR1)
The agonistic or antagonistic action of the substances to be investigated on the vanilloid receptor (VR1) may also be determined with the following assay. According to this assay, the influx of Ca^2+ through the channel is quantified with the assistance of a Ca^2+-sensitive dye (type Fluo-4, Molecular Probes Europe BV, Leiden, Netherlands) in a Fluorescent Imaging Plate Reader (FLIPR, Molecular Devices, Sunnyvale, USA).
Chinese hamster ovary cells (CHO K1 cells, European Collection of Cell Cultures (ECACC), Great Britain) are stably transfected with the VR1 gene. For functional investigations, these cells are plated out onto poly-D-lysine-coated, black 96-hole plates with a clear base (BD Biosciences, Heidelberg, Germany) at a density of 25,000 cells/hole. The cells are incubated overnight at 37° C. and 5% CO2 in a culture medium (Ham's Nutrient Mixture F12, 10 vol. % FCS (foetal calf serum), 18 μg/mL L-proline). On the following day, the cells are incubated with Fluo-4 (Fluo-4 2 μM, Pluronic F127 0.01 vol. %, Molecular Probes in HBSS (Hank's buffered saline solution), Gibco Invitrogen GmbH, Karlsruhe, Germany) for 30 minutes at 37° C. The plates are then washed 3 times with HBSS buffer and, after a further 15 minutes' incubation at room temperature, used for Ca^2+ measurement in the FLIPR. Ca^2+-dependent fluorescence is here measured before and after the addition of the substances to be investigated (wavelength λex=488 nm, λem=540 nm).
Quantification proceeds by measuring the highest fluorescence intensity (FC, fluorescence counts) over time.
The FLIPR protocol consists of 2 additions of substance. The substances to be tested (10 μM) are firstly pipetted onto the cells and Ca^2+ influx is compared with the control (capsaicin 10 μM) (% activation relative to the Ca^2+ signal after addition of 10 μM of capsaicin). After 5 minutes' incubation, 100 nM of capsaicin are added and the influx of Ca^2+ is likewise determined.
The percentage inhibition in comparison with the maximum achievable inhibition with 10 μM capsaicin is calculated.
On the basis of the percentage displacement by different concentrations of the compounds to be tested of the general formula I, IC50 inhibition concentrations which bring about 50% displacement of capsaicin were calculated. Ki values for the test substances were obtained by conversion using the Cheng-Prusoff equation (Cheng, Prusoff; Biochem. Pharmacol. 22, 3099-3108, 1973).

VR1/TRPV1 receptor = VR1/TRPV1 receptor (Homo sapiens, UniProt Q8NER1); test: Inhibition of human VR1/TRPV1 following pH-stimulus; type: cell-based; details: for IC50 (Human) following pH-stimulus: ne = no effect, no response observed; for inhibition at 1 µM: compound 1 μM, read-out: IC50 (Human) following pH-stimulus: inhibition (in percent) @ 1 μM; for inhibition at 5 µM: read-out: IC50 (Human) following pH-stimulus: inhibition (in percent) @ 5 μM; for inhibition at 10 µM: compound 10 μM, read-out: IC50 (Human) following pH-stimulus: inhibition (in percent) @ 10 μM
Chain of VR1/TRPV1 receptor (Q8NER1 whole entry): as above

| Structure (SMILES) | inhibition at 0.1 µM [1] | IC50 (Human) following pH-stimulus (VR1/TRPV1 receptor) | Ki [1] | inhibition at 5 µM (VR1/TRPV1 receptor; compound 5 μM) | also measured |
| --- | --- | --- | --- | --- | --- |
| CC(=O)Nc1nc2ccc(C(C)C(=O)NCc3ccc(C(F)(F)F)nc3N3CCC(C)CC3)cc2s1 (stereo not shown) [Example 41, 2-(2-acetamidobenzo[d]thiazol-6-yl)-N-((2-(4-methylpiperidin-1-yl)-6-(trifluoromethyl)pyridin-3-yl)methyl)propanamide] | 5% | Ne |  |  |  |
| CC1CCN(c2nc(C(F)(F)F)ccc2CNC(=O)C(C)c2ccc3nc(NS(C)(=O)=O)sc3c2)CC1 (stereo not shown) [Example 39, N-((2-(4-methylpiperidin-1-yl)-6-(trifluoromethyl)pyridin-3-yl)methyl)-2-(2-(methylsulfonamido)benzo[d]thiazol-6-yl)propanamide] | 0% | Ne |  |  |  |
| CC(C(=O)NCc1ccc(C(C)(C)C)cc1)c1ccc2nccnc2c1 (stereo not shown) [Example 11, N-(4-tert.-butyl-benzyl)-2-quinoxalin-6-yl-propionamide] |  |  |  |  | Ki (human) Capsaicin [1]: ne |
| CC(C(=O)NCc1ccc(C(C)(C)C)cc1)c1ccc2c(c1)OCCO2 (stereo not shown) [Example 9, N-(4-tert.-butyl-benzyl)-2-(2,3-dihydro-benzo[1,4]dioxin-6-yl)-propionamide] |  | Ne | 1080 nM |  |  |
| CC(C(=O)NCc1ccc(C(C)(C)C)cc1)c1ccc2[nH]cnc2c1 (stereo not shown) [Example 14, 2-(1H-benzoimidazol-5-yl)-N-(4-tert.-butyl-benzyl)-propionamide] |  |  |  |  | Ki (human) Capsaicin [1]: ne |
| CC1CCN(c2nc(C(F)(F)F)ccc2CNC(=O)C(C)c2ccc3nc(NC(=O)OC(C)(C)C)sc3c2)CC1 (stereo not shown) [Example 40, tert.-butyl 6-(1-((2-(4-methylpiperidin-1-yl)-6-(trifluoromethyl)pyridin-3-yl)methylamino)-1-oxopropan-2-yl)benzo[d]thiazol-2-ylcarbamate] | 0% |  |  | 21% | inhibition at 5 µM [1]: 34%; inhibition at 1 µM (VR1/TRPV1 receptor): 0%; inhibition at 10 µM (VR1/TRPV1 receptor): 37% |
| CC(C(=O)NCc1ccc(C(C)(C)C)cc1)c1ccc2c(c1)OCCN2 (stereo not shown) [Example 20, N-(4-tert.-butylbenzyl)-2-(3,4-dihydro-2H-benzo[b][1,4]oxazin-7-yl)propionamide] |  | Ne |  |  | inhibition at 5 µM [1]: 9% |
| CC(C(=O)NCc1ccc(C(C)(C)C)cc1)c1ccc2ocnc2c1 (stereo not shown) [Example 1, 2-benzooxazol-5-yl-N-(4-tert.-butyl-benzyl)-propionamide] |  | Ne | 579 nM |  |  |
| COc1cc(C(C)C(=O)NCc2ccc(C(C)(C)C)cc2)cc2ncoc12 (stereo not shown) [Example 7, N-(4-tert.-butyl-benzyl)-2-(7-methoxy-benzooxazolyl-5-yl)-propionamide] |  | Ne | 2170 nM |  |  |
| CSc1nc2ccc(C(C)C(=O)NCc3ccc(C(C)(C)C)nc3N3CCC(C)CC3)cc2s1 (stereo not shown) [Example 34, N-(6′-tert.-butyl-4-methyl-3,4,5,6-tetrahydro-2H-[1,2′]bipyridinyl-3′-ylmethyl)-2-(2-methylsulfanyl-benzothiazol-6-yl)-propionamide] |  | Ne |  |  | inhibition at 5 µM [1]: 38% |
| CC1CCN(c2nc(C(F)(F)F)ccc2CNC(=O)C(C)c2ccc3nc(N)sc3c2)CC1 (stereo not shown) [Example 38, 2-(2-aminobenzo[d]thiazol-6-yl)-N-((2-(4-methylpiperidin-1-yl)-6-(trifluoromethyl)pyridin-3-yl)methyl)propanamide] |  | Ne | 28.4 nM |  |  |

Now from value to compound, other results behind:

| inhibition at 0.1 µM [1] | IC50 (Human) following pH-stimulus (VR1/TRPV1 receptor) | Ki [1] | inhibition at 5 µM (VR1/TRPV1 receptor; compound 5 μM) | Structure (SMILES) | also measured |
| --- | --- | --- | --- | --- | --- |
|  |  |  | 27% | CC1CCN(c2nc(C(C)(C)C)ccc2CNC(=O)C(C)c2ccc3nc(NC(=O)OC(C)(C)C)sc3c2)CC1 (stereo not shown) [Example 55, tert-butyl 6-(1-((6-tert-butyl-2-(4-methylpiperidin-1-yl)pyridin-3-yl)methylamino)-1-oxopropan-2-yl)benzo[d]thiazol-2-ylcarbamate] | inhibition at 5 µM [1]: 12%; inhibition at 1 µM (VR1/TRPV1 receptor): 5% |
|  |  | 18.7 nM | 2% | CC1CCN(c2nc(C(C)(C)C)ccc2CNC(=O)C(C)c2ccc3nc(N)sc3c2)CC1 (stereo not shown) [Example 56, 2-(2-aminobenzo[d]thiazol-6-yl)-N-((6-tert-butyl-2-(4-methylpiperidin-1-yl)pyridin-3-yl)methyl)propanamide] | inhibition at 10 µM (VR1/TRPV1 receptor): 12% |
| 3% |  |  | 39% | CC(C(=O)NCc1ccc(C(C)(C)C)cc1)c1ccc2nc(N)sc2c1 (stereo not shown) [Example 51, 2-(2-aminobenzo[d]thiazol-6-yl)-N-(4-tert.-butylbenzyl)propanamide] | inhibition at 0.1 µM (VR1/TRPV1 receptor; compound 0.1 μM, read-out: IC50 (Human) following pH-stimulus: inhibition (in percent) @ 0.1 μM): 10%; IC50 (Human) following pH-stimulus: inhibition (in percent) @ 5 μM (VR1/TRPV1 receptor; compound 5 μM, 5 µM): 27% @ 5 |
| 0% |  |  | 25% | CC(C(=O)NCc1ccc(C(C)(C)C)cc1)c1ccc2nc(NC(=O)OC(C)(C)C)sc2c1 (stereo not shown) [Example 50, tert.-butyl 6-(1-(4-tert.-butylbenzylamino)-1-oxopropan-2-yl)benzo[d]thiazol-2-ylcarbamate] | inhibition at 5 µM [1]: 10%; inhibition at 1 µM (VR1/TRPV1 receptor): 10%; inhibition at 10 µM (VR1/TRPV1 receptor): 53% |
|  |  | 32.8 nM | 3% | CC(C(=O)NCc1ccc(C(C)(C)C)cc1)c1ccc2nc(NS(C)(=O)=O)sc2c1 (stereo not shown) [Example 57, N-(4-tert-butylbenzyl)-2-(2-(methylsulfonamid)benzo[d]thiazol-6-yl)propanamide] | inhibition at 10 µM (VR1/TRPV1 receptor): 32% |
| 5% | Ne |  |  | CC1CCN(c2nc(C(F)(F)F)ccc2CNC(=O)C(C)c2ccc3nc(N)sc3c2)CC1 (stereo not shown) [Example 52, 2-(2-aminobenzo[d]thiazol-6-yl)-N-((2-(4-methylpiperidin-1-yl)-6-(trifluoromethyl)pyridin-3-yl)methyl)propanamide] |  |
